The target in one experiment is T1, human mGlu2 receptors (Homo sapiens, UniProt Q14416).
T1 construct: expressed in transfected cells; host or cells: RGT cells (co-transfected with rat GLAST, stably transfected with Galpha15)
Kind of experiment: Potentiation of glutamate-induced increase in intracellular calcium with a mGlu2 expressing cell line (FLIPR). The experiment is classed as cell-based. The following applies: RGT cells expressing human mGlu2 and Galpha15; with submaximal glutamate (e.g. 1 μM). As for the experimental part: Potentiation of Glutamate-Induced Increase in Intracellular Calcium with a mGlu2 Expressing Cell Line.
Cell lines expressing human mGlu2 receptors are derived as previously described (Desai, Burnett, Mayne, Schoepp, Mol. Pharmacol. 48, 648-657, 1995) and cultured in DMEM with 5% dialyzed fetal bovine serum, 1 mM glutamine, 1 mM sodium pyruvate, 50 μg/mL Geneticin G418, and 0.2 mg/mL hygromycin B. Confluent cultures are passaged weekly. These cells are referred to as RGT cells for Rat Glutamate Transporter, and have been co-transfected with the glutamate/aspartate transporter GLAST. The RGT cell line expressing the mGlu2 receptors is stably transfected with the promiscuous G-protein, Galpha15 to change the signaling pathway to the mGlu2 receptor to one that could be easily measured through release of intracellular calcium. Thus, intracellular calcium levels are monitored before and after the addition of drugs on a Fluorometric Imaging Plate Reader (i.e. FLIPR, Molecular Devices). The following buffer is used throughout as an assay buffer: 10 mM KCl, 138 mM NaCl, 5 mM Ca Cl2, 1 mM MgC2, 4 mM Na H2PO4, 10 mM Glucose, 10 mM HEPES, pH 7.4. Cells that had been plated 48 hours prior at a density of 30-40,000 cells per well in a 96-well plate are loaded with a calcium-sensitive dye for 90 minutes at 25° C. Fluo-3 (2 mM in DMSO, Molecular Probes) are mixed with a equal volume of 10% pluronic acid in DMSO, and diluted to 8 μM into the buffer described above containing 10% fetal bovine serum to make the loading buffer. Following loading of the cells, the loading buffer is removed and replaced with assay buffer prior to drug addition and monitoring on the FLIPR. The resulting signal from the addition of compounds of formula (I) and submaximal concentrations of a glutamate-site agonist (e.g. 1 μM glutamate) is determined by taking the difference of the maximal fluorescent peak height minus the background fluorescence in each well and expressing the results as a percent of the signal seen with a maximal glutamate response (30 μM glutamate, typically about 30-50,000 Relative Fluorescent Units). Least squares curve fitting with a four-parameter equation is then applied to the resulting dose-% response curve to determine the resulting EC50 values.
(A change in cytosolic calcium serves as a functional read-out for many receptors and channels.)

For another experiment, the target named is T2, human CysLT1 receptor (Homo sapiens, UniProt Q9Y271).
T2 construct: expressed in transfected cells; host or cells: AV12-664 (ATCC-9595)
T2 sequence (Q9Y271 1-337): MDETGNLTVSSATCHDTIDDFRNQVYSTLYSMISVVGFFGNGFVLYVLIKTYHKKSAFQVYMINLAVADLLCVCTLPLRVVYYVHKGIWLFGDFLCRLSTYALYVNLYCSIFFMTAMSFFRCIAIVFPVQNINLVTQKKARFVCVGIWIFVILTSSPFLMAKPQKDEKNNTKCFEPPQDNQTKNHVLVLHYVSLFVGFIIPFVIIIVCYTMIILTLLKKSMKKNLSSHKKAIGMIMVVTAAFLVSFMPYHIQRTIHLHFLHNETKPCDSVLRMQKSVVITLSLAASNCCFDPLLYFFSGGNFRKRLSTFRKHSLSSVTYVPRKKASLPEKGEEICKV
Kind of experiment: Antagonism of LTD4-induced increase in intracellular calcium within a CysLT1 receptor expressing cell line (FLIPR). The experiment is classed as cell-based. The following applies: AV12-664 cells expressing human CysLT1; 6 nM LTD4; read-out: antagonism of CysLT1 receptors, IC50. As for the experimental part:
Antagonism of Cysteinyl-leukotriene D4 (LTD4)-Induced Increase in Intracellular Calcium within a Cysteinyl-Leukotriene 1 (CysLT1) Receptor Expressing Cell Line.
Cell lines expressing the human CysLT1 receptor [AV12-664 (ATCC-9595)] are derived and maintained in culture media: DMEM with 5% dialyzed fetal bovine serum, 1 mM glutamine, and 1 mM sodium pyruvate. Confluent cultures are passaged weekly. Intracellular calcium levels are monitored in the CysLT1-expressing cells with the addition of LTD4, with or without prior exposure to the compounds being tested as antagonists with a Fluorometric Imaging Plate Reader (FLIPR, Molecular Devices). The following buffer is used throughout as an assay buffer: Hanks Buffered Saline Solution without phenol red (GIBCO), with 10 mM HEPES pH 7.4. Cells that had been plated 48 hours prior at a density of 20-25,000 cells per well in a 96-well plate are loaded with a calcium-sensitive dye for 90 minutes at 25° C. Fluo-3 (2 mM in DMSO, Molecular Probes) is mixed with an equal volume of 10% pluronic acid in DMSO, and diluted to 8 μM in the buffer described above containing 10% fetal bovine serum to make the loading buffer. Following loading of the cells, the buffer is removed and replaced with assay buffer prior to drug addition and monitoring on the FLIPR for several minutes. The resulting signal from the addition of 6 nM LTD4 (provides approximately 90% of the maximal signal with 25 nM LTD4) is determined by taking the difference of the maximal fluorescent peak height minus the background fluorescence in each well and expressing the results as a percent of the signal seen without pretreatment of the test compound(s). Least squares curve fitting with a four-parameter equation is applied to the resulting dose-% inhibition curve to determine the resulting IC50 values.

The values that follow come from patent publication US7858646B2, “Potentiators of glutamate receptors” (Eli Lilly and Company, priority 2004, dated 2010).

T1 sequence (Q14416 19-872): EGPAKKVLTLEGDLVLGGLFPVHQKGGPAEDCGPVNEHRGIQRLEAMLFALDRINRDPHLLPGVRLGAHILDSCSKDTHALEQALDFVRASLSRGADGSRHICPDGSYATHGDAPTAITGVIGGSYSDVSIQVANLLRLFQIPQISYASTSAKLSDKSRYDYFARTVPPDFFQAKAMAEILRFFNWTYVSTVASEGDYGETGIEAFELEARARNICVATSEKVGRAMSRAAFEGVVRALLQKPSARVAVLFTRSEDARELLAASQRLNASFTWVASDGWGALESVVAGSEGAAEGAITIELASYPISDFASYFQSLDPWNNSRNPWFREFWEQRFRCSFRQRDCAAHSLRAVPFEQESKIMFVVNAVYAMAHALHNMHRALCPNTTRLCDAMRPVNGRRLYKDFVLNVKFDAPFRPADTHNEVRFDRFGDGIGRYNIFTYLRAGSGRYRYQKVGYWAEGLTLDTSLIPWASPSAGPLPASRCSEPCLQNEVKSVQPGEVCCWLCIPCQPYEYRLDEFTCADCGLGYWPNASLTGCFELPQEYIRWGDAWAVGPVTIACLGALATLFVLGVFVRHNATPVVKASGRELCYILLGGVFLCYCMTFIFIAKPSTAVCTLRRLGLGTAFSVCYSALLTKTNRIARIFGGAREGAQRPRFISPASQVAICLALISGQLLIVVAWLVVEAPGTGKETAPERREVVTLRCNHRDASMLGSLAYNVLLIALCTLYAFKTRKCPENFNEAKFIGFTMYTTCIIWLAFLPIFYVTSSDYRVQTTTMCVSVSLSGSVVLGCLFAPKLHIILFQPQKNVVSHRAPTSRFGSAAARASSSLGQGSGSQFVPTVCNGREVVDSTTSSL

`CC(=O)c1ccc(OCc2ccc(Oc3cc(-c4nn[nH]n4)ccn3)cc2)c(C)c1O` [Example 21, 1-(2-Hydroxy-3-methyl-4-{4-[4-(1H-tetrazol-5-yl)-pyridin-2-yloxy]-benzyloxy}-phenyl)-ethanone]: on human mGlu2 receptors, the 50% effective concentration (EC50) (in general, the midpoint of the concentration-response curve) is under 350 nM. Besides, the IC50 (usually the point on the concentration scale where inhibition reaches its midpoint) at human CysLT1 receptor is under 150 nM.

Turning to `CC(=O)c1ccc(OCc2ccc(Oc3cccc(-c4nn[nH]n4)c3)cc2)c(C)c1O` [Example 22, 1-(2-Hydroxy-3-methyl-4-{4-[3-(1H-tetrazol-5-yl)-phenoxy]-benzyloxy}-phenyl)-ethanone], the 50% effective concentration (EC50) on human mGlu2 receptors was under 350 nM.

As to `CC(=O)c1ccc(OCc2cccc(Oc3cc(-c4nn[nH]n4)ccn3)c2)c(C(F)(F)F)c1O` [Example 27, 1-(2-Hydroxy-4-{3-[4-(2H-tetrazol-5-yl)-pyridin-2-yloxy]-benzyloxy}-3-trifluoromethyl-phenyl)-ethanone], the EC50 at human mGlu2 receptors is under 350 nM. Moreover, at human CysLT1 receptor, the IC50 was under 150 nM.

With `CCCc1c(OCc2cccc(Sc3cc(C(=O)O)ccn3)c2)ccc(C(C)=O)c1O` [Example 84, 6-(3-((4-acetyl-3-hydroxy-2-propylphenoxy)methyl)phenylthio)isonicotinic acid], the concentration for a half-maximal effect (EC50) at human mGlu2 receptors is under 350 nM. Further, the 50% inhibitory concentration (IC50) on human CysLT1 receptor was under 150 nM.
